Experimental data published in the NIST ThermoML archive (doi:10.1016/j.jct.2015.09.032).
Numbers after ± are expanded uncertainties.

Assays:
[1] = Molar enthalpy of transition or fusion; conditions: Crystal; DSC
[2] = Crystal; DTA

Molar enthalpy of transition or fusion [1]: 8.72 ± 0.406 kcal/mol
Normal melting temperature [2]: 169.2 ± 0.61 °C
SMILES: CN(C)CCOC(c1ccccc1)c1ccccc1.Cl [2-diphenylmethoxy-N,N-dimethylethanamine hydrochloride]
